The values that follow come from ChEMBL document CHEMBL3108774, “Azaindoles: noncovalent DprE1 inhibitors from scaffold morphing efforts, kill Mycobacterium tuberculosis and are efficacious in vivo” (J Med Chem, 2013).

Common to all, as to format: functional
The test system of experiment [1] is Mycobacterium tuberculosis. As to the kind of experiment: Antimicrobial activity against Mycobacterium tuberculosis H37Rv ATCC 27294 harboring DprE1 Y314H mutant assessed as growth inhibition after 5 days by microdilution method. For orientation: In broth dilution the organism is exposed to a series of concentrations in liquid medium.
Experiment [2] deals with Mycobacterium tuberculosis. As to the kind of experiment: Antimicrobial activity against Mycobacterium tuberculosis H37Rv ATCC 27294 overexpressing DprE1 assessed as growth inhibition after 5 days by microdilution method. As to conditions: H37Rv ATCC 27294, 120 h.
Experiment [3] deals with Mycobacterium tuberculosis. As to the kind of experiment: Antimicrobial activity against Mycobacterium tuberculosis H37Rv ATCC 27294 harboring DprE1 C387G mutant assessed as growth inhibition after 5 days by microdilution method.
For experiment [4], the system named is Mycobacterium tuberculosis. As to the kind of experiment: Antimicrobial activity against Mycobacterium tuberculosis H37Rv ATCC 27294 harboring DprE1 C387S mutant assessed as growth inhibition after 5 days by microdilution method.

Molecules are shown by their SMILES. In brackets after ≈: the same amount, converted by molar mass.

In the case of `COc1ncnc(Cn2cc(C(=O)NCCF)c3ncccc32)c1C`, the MIC in experiment [1] is above 100 µM; in experiment [2] it was 50 µM (≈ 17.2 µg/mL); in experiment [3] it was 0.78 µM (≈ 0.268 µg/mL); in experiment [4], 3.12 µM (≈ 1.07 µg/mL).

As for `COc1ncnc(Cn2cc(C(=O)NCCF)c3ncc(C)cc32)c1C`, the MIC was above 200 µM in experiment [1], 6.25 µM (≈ 2.23 µg/mL) in experiment [2], 0.39 µM (≈ 0.139 µg/mL) in experiment [3] and 0.39 µM (≈ 0.139 µg/mL) in experiment [4].

For `COc1ncnc(Cn2cc(C(=O)NCCO)c3ncc(C)cc32)c1C` [TBA-7371], the minimal inhibitory concentration (MIC) is above 200 µM in experiment [1], 100 µM (≈ 35.5 µg/mL) in experiment [2], 0.78 µM (≈ 0.277 µg/mL) in experiment [3] and 0.39 µM (≈ 0.139 µg/mL) in experiment [4].

By MIC is commonly meant the smallest concentration in the dilution series that meets the test's criterion for growth inhibition.
